Laboratory results as given in ChEMBL document CHEMBL3792288, “VP1 crystal structure-guided exploration and optimization of 4,5-dimethoxybenzene-based inhibitors of rhinovirus 14 infection” (Eur J Med Chem, 2016).
The source made the active and inactive calls. The rule behind the calls is not given here.

Legend:
[1] = Cytotoxicity against human HeLa Rh cells assessed as cell viability by light microscopy; type: cell-based
[2] = Selectivity index, ratio of CC50 for human HeLa Rh cells to EC50 for Human Rhinovirus B serotype 14 infected in HeLa Rh cells; type: toxicity, cell-based; settings: read-out: Ratio CC50/EC50
Rhinovirus A = assay: Antiviral activity against Human Rhinovirus A serotype 2 infected in HeLa Rh cells assessed as reduction of virus-induced cytopathic effect after 3 days by MTS assay; type: functional, cell-based
Rhinovirus B = assay: Antiviral activity against Human Rhinovirus B serotype 14 infected in HeLa Rh cells assessed as reduction of virus-induced cytopathic effect after 3 days by MTS assay; type: functional, organism-based; settings: serotype 14, HeLa Rh, 72 h

| SMILES | CC50 [1] [µM] | selectivity ratio [2] | Activity (Rhinovirus A) | EC50 (Rhinovirus B) [nM] |
| --- | --- | --- | --- | --- |
| COc1cc(CC(O)c2ccc(-c3cccc(CO)c3)cc2)c([N+](=O)[O-])cc1OC (stereo not drawn) | 6 | 4.3 | inactive | 1400 |
| COc1cc(CC(O)c2ccc(-c3cccnc3)cc2)c([N+](=O)[O-])cc1OC (stereo not drawn) | > 263 | > 132 | inactive | 2000 |
| COc1cc(CC(O)c2ccc(-c3cccc(F)c3)cc2)c([N+](=O)[O-])cc1OC (stereo not drawn) | 7.4 | 3.4 | inactive | 2200 |
| COc1cc(CC(O)c2ccc(-c3ccc(C(F)(F)F)cc3)cc2)c([N+](=O)[O-])cc1OC (stereo not drawn) | 4.1 |  | inactive | > 6000 |
| COc1cc(CC(O)c2cccc(-c3ccc(Cl)cc3)c2)c([N+](=O)[O-])cc1OC (stereo not drawn) | 5 |  | inactive | > 5000 |
| COc1cc(CC(O)c2ccc(-c3cccs3)cc2)c([N+](=O)[O-])cc1OC (stereo not drawn) | 11 | 6.9 | inactive | 1600 |
| COc1cc(CC(O)c2ccc(-c3ccc(F)cc3)cc2)c([N+](=O)[O-])cc1OC (stereo not drawn) | 4.5 |  | inactive | > 4500 |
| COc1cc(CC(O)c2ccc(-c3cccc(C#N)c3)cc2)c([N+](=O)[O-])cc1OC (stereo not drawn) | 5.2 | 3.7 | inactive | 1400 |
| COc1cc(CC(O)c2ccc(-c3cccc([N+](=O)[O-])c3)cc2)c([N+](=O)[O-])cc1OC (stereo not drawn) | 5.5 | 2.5 | inactive | 2200 |
| COc1cc(CC(O)c2ccc(-c3ccc(C)cc3)cc2)c([N+](=O)[O-])cc1OC (stereo not drawn) | 4.7 |  | inactive | > 4700 |
| COc1cc(CC(O)c2ccc(C#N)cc2)c([N+](=O)[O-])cc1OC (stereo not drawn) | 104 |  |  | 2200 |
| COc1cc(CC(O)c2ccc(-c3ccc([N+](=O)[O-])cc3)cc2)c([N+](=O)[O-])cc1OC (stereo not drawn) | 21 | 4.5 | inactive | 4700 |
| COc1cc(CC(O)c2ccc(-c3ccccc3F)cc2)c([N+](=O)[O-])cc1OC (stereo not drawn) | 5 |  | inactive | > 5000 |
| COc1cc(CC(O)c2ccc(-c3ccccc3C#N)cc2)c([N+](=O)[O-])cc1OC (stereo not drawn) | 9.3 |  | inactive | > 9300 |
| COc1cc(CC(O)c2ccc(-c3ccccc3[N+](=O)[O-])cc2)c([N+](=O)[O-])cc1OC (stereo not drawn) | 9.5 | 6.3 | inactive | 1500 |
| COc1cc(CC(O)c2ccc(-c3ccc(C=O)cc3)cc2)c([N+](=O)[O-])cc1OC (stereo not drawn) | > 245 |  | inactive | > 245000 |
| COc1cc(CC(O)c2ccc(-c3ccccc3)cc2)c([N+](=O)[O-])cc1OC (stereo not drawn) |  |  |  | 1970 |
| COc1ccc(-c2ccc(C(O)Cc3cc(OC)c(OC)cc3[N+](=O)[O-])cc2)cc1 (stereo not drawn) | > 244 |  | inactive | > 244000 |
| COc1cc(CC(O)c2ccc(-c3ccc(C#N)cc3)cc2)c([N+](=O)[O-])cc1OC (stereo not drawn) | 4.7 |  | inactive | > 4700 |
| COc1cc(CC(O)c2ccc(-c3ccccc3CO)cc2)c([N+](=O)[O-])cc1OC (stereo not drawn) | 24 | 8 | inactive | 3000 |
| COc1cc(CC(O)c2ccc(-c3ccoc3)cc2)c([N+](=O)[O-])cc1OC (stereo not drawn) | 5.3 | 3.3 | inactive | 1600 |
| COc1cc(CC(O)c2ccc(-c3cccc(Cl)c3)cc2)c([N+](=O)[O-])cc1OC (stereo not drawn) | 5.9 | 3.5 | inactive | 1700 |
| COc1cc(CC(O)c2ccc(-c3ccncc3)cc2)c([N+](=O)[O-])cc1OC (stereo not drawn) | > 263 | > 77.3 | inactive | 3400 |
| COc1cc(CC(O)c2ccc(-c3ccc(Br)cc3)cc2)c([N+](=O)[O-])cc1OC (stereo not drawn) | 4.3 |  | inactive | > 4300 |
| Cc1cc(CCCOc2c(C)cc(-c3noc(C(F)(F)F)n3)cc2C)on1 [PLECONARIL] | 50.2 |  | inactive | 200 |
| COc1cc(CC(O)c2ccc(-c3ccc(Cl)cc3)cc2)c([N+](=O)[O-])cc1OC (stereo not drawn) | 4.1 |  | inactive | > 4100 |
| COc1cc(CC(O)c2ccc(-c3ccc(CO)cc3)cc2)c([N+](=O)[O-])cc1OC (stereo not drawn) | > 244 |  | inactive | > 244000 |
| COc1cc(CC(O)c2cccc(-c3ccc(C#N)cc3)c2)c([N+](=O)[O-])cc1OC (stereo not drawn) | 9.3 |  | inactive | > 9300 |
